# Reference: paper PMC5591292, “Identification of Purple Acid Phosphatases in Chickpea and Potential Roles of CaPAP7 in Seed Phytate Accumulation” (Scientific Reports, 2017)
# Molecular target: T1, CaPAP7 (Cicer arietinum, UniProt A0A1S2YHG0)
# T1 construct: gene PAP7; ORF PCR product of 1008 bp (about 335 residues) in pET28a, E. coli BL21(DE3) pLysS, Ni-NTA purified, ~38 kDa on SDS-PAGE; signal peptide predicted but protein cytoplasmic
# T1 sequence (A0A1S2YHG0 1-335): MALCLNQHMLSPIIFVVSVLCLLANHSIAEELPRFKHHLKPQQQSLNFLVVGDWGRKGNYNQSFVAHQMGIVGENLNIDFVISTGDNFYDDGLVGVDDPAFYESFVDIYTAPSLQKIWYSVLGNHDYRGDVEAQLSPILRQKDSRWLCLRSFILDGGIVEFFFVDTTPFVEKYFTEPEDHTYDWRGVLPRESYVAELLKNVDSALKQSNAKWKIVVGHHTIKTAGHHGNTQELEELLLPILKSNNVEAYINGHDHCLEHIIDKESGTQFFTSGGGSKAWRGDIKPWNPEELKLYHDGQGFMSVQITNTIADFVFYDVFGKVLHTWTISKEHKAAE
# Experiment: phosphatase activity assay, […] min
# Type: biochemical
# Conditions: 10 mM substrate, 37 °C; maximum activity among substrates tested
smiles,measurement,value
O=P(O)(O)O[C@H]1[C@H](OP(=O)(O)O)[C@@H](OP(=O)(O)O)[C@H](OP(=O)(O)O)[C@@H](OP(=O)(O)O)[C@H]1OP(=O)(O)O [phytic acid],"phosphatase activity assay, 30 min",it exhibited maximum catalytic activity for phytic acid
